Test system: Aβ40
Test: Assessment of Aβ levels in rat brain and plasma following BACE1 inhibition (Aβ40 ELISA)
Type: in vivo
Conditions: 3 hours post dose, vs vehicle
Protocol: Assessment of Aβ Levels in Rat Brain and Plasma Following BACE1 Inhibition. Animals.
All rat care and experimental procedures were approved by Lundbeck Veterinary Staff, according to Danish legislature. The rats were maintained in a barrier facility with a 12/12-h light/dark cycle and ad libitum food and water access.
Young adult Male Sprague Dawley rats of approximately 250 g weight were purchased from Charles River and received 0-30 mg/kg of vehicle (10% HP betaCD+1M MeSO4, pH 2.5) or test compounds (dissolved in vehicle) only by oral gavage (p.o). The compounds are dosed at a volume of 5 ml/kg. Cohorts of 5-10 animals were established for each treatment condition.
The animals undergoing treatment were closely monitored by veterinary staff for any signs of toxicity. Monitoring parameters included body weight, physical appearance, changes in coat appearance, occurrence of unprovoked behavior, and blunted or exaggerated responses to external stimuli.
At T=180 minutes after initial dosing the animals were stunned and decapitated with a guillotine. Trunk-blood was sampled in EDTA coated tubes after decapitation of the animal. The blood was centrifuged at 2200G at 4° C. for 15 minutes and the plasma was collected and frozen at −80° C. The blood was aliquoted for Aβ ELISA and pharmacokinetic analysis. Immediately following sacrifice, the brain was extracted and split into 2 halves. The right hemibrains were snap frozen on dry ice and stored at −80° C. The left half was dissected; with the front forebrain taken for Aβ ELISA and the remainder used for DMPK analysis. These samples were also snap frozen on dry ice and stored at −80° C. until use for analysis.
The cortex samples were thawed slightly on wet ice before they were homogenized with a small volume dispersing instrument (T10 basic ULTRA-TURRAX®) which was set at speed 5 for approximately 5-7 sec. The tissue was processed in a 10 times volume of the weight, for example 100 mg of tissue was homogenized in 1000 μL of Homogenization buffer. Homogenization buffer: 50 ml Milli Q water+50 nM NaCl+0.2% Diethylamin (DEA)+1 tablet of Complete Protease inhibitor cocktail+1 nM 4-(2-aminoethyl) benzenesulfonyl fluoride hydrochloride irreversible serine protease inhibitor (AEBSF).
After homogenization 450 μL aliquots of the samples were collected into a 1.5 ml Eppendorf tube and placed on wet ice, 0.5% NP-40 (50 ul) was added to all samples and then they were incubated on ice for 30 min. After which all samples were sonicated using an Ultrasonic homogenizer with 20 kHz homogeneous sound (SONOPLUS HD2070, Bandelin Electronic) 10 pulse set at 12-13% power to extract all the Aβ species. The samples were then centrifuged (Ole Dich 157 MPRF Micro centrifuge) at 20000G for 20 minutes at 4° C. After centrifugation […] of the supernatant was pipetted into 6004 microtubes tubes and neutralized with 154 of 1M Tris-HCL buffer.
WAKO 294-62501 Human/Rat Abeta amyloid (40) kit was used for all ELISA analyses. 30 μL plasma samples or 30 μL of the cortex supernatants generated as described above were placed in 600 μL microtubes tubes on wet ice. To this 30 μL of 8M urea (AppliChem A1049, 9025) was added to generate a 2-fold dilution. Both plasma and cortex supernatants were incubated on ice for 30 min. Standard rows were prepared from the standard peptide stock provided in the kit and standard diluent containing 1.6M Urea (200 μL 8M urea+800 μL of standard diluent) and 0.8M urea (400 μL 8M urea+3600 μL Standard diluent). A serial 2-fold dilution of […] from 100 pmol/ml to 0 pmol/L was prepared for the assay.
After incubation with urea, all samples were further diluted by addition of 5 times standard diluent from the Kit. This was done by adding 240 μL Standard Diluent to 60 μL sample/urea mixture, which was then mixed well. 100 μL of each diluted sample was pipetted into designated wells of the ELISA plate in duplicates. The plate was then covered and incubated overnight at 4° C. […]

Compound | Aβ40 reduction, Brain Rat (10 mg/kg p.o.) | Aβ40 reduction, Brain Rat (30 mg/kg p.o.) | Aβ40 reduction, Plasma Rat (10 mg/kg p.o.) | Aβ40 reduction, Plasma Rat (30 mg/kg p.o.)
COc1cnc(C(=O)Nc2ccc(F)c([C@]3(C)CC[C@@](F)(CF)C(N)=N3)c2)cn1 [Compound 5, N-(3-((2S,5S)-6-Amino-5-fluoro-5-(fluoromethyl)-2-methyl-2,3,4,5-tetrahydropyridin-2-yl)-4-fluorophenyl)-5-methoxypyrazine-2-carboxamide] | 56% | 65% | 44% | 46%
C[C@@]1(c2cc(NC(=O)c3cnc(C(F)F)cn3)ccc2F)CC[C@@](F)(CF)C(N)=N1 [Compound 11, N-(3-((2S,5S)-6-Amino-5-fluoro-5-(fluoromethyl)-2-methyl-2,3,4,5-tetrahydropyridin-2-yl)-4-fluorophenyl)-5-(difluoromethyl)pyrazine-2-carboxamide] | 21% | 41% | 39% | 60%
C[C@@]1(c2cc(NC(=O)c3ccc(F)cn3)ccc2F)CC[C@@](F)(CF)C(N)=N1 [Compound 13, N-(3-((2S,5S)-6-Amino-5-fluoro-5-(fluoromethyl)-2-methyl-2,3,4,5-tetrahydropyridin-2-yl)-4-fluorophenyl)-5-fluoropicolinamide] | 43% | 59% | 38% | 38%

— patent US20180244645A1, “2-AMINO-3-FLUORO-3-(FLUOROMETHYL)-6-METHYL-6-PHENYL-3,4,5,6-TETRAHYDROPYRIDINES AS BACE1 INHIBITORS” (H. Lundbeck A/S, priority 2015, published 2018)
